Literature values, collected in patent US20250009900A1, “OXAZAPHOSPHORINE ANTIBODY DRUG CONJUGATES AND METHODS OF USE” (LA Life Products, LLC, priority 2023, published 2025).

Conditions: combination with ipilimumab (anti-CTLA-4), in the clinic; cited from earlier work

Cn1c(COP(=O)(NCCBr)NCCBr)cnc1[N+](=O)[O-] [evofosfamide]
good clinical activity (patients): 15 of 22
